In US20020054872A1, “Peptides for the treatment of systemic lupus erythematosus and methods of treating systemic lupus erythematosus” (priority 1997, published 2002):
Each block holds one molecule with its values, some of them ahead of it. Residues, ends and D or L forms follow the SMILES beside them.

How the values were obtained:
[1] = test system: C72 murine anti-DNA antibody; test: Direct binding ELISA of C72 to laminin peptides; parameters: species or system mouse; conditions: for C72 Binding: direct binding ELISA test after one (1) hour; for binding of C72 murine anti-DNA antibody to laminin peptides: FIG. 1, C72 conditioned medium in various dilutions
Description: (§1) The C72 murine anti-DNA antibody has been derived from (NZB×NZW)F1 lupus mice by the hybridoma technique as described in Eilat D. et al J. Immunol. […] The monoclonal anti-DNA antibodies DIL6 and B3 were derived from lupus patients by hybridoma technique as described in Ehrenstein M. R. et al J. Clin. Invest. (1994) 93 1787-1799 and Ehrenstein M. R. et al Kidney Inter. (1995) 48 705-711.
(§2) Wells were coated with 10 μg/ml of the peptides, blocked with 1% BSA (bovine serum albumin) in PBS (pH 7,4), reacted with appropriately diluted serum or urine samples or monoclonal antibodies, incubated with anti-human or anti-mouse immunoglobulin enzyme conjugated to alkaline phosphatase and detected by addition of substrate (Sigma 100 Phosphatase Substrate Tablets) and color development using an Organon Teknika Microwell System spectrometer at wavelength of 405 nm.
The interaction of the C72 murine anti-DNA antibody with laminin peptides was analyzed by ELISA as described above. The C72 conditioned medium was diluted in PBS in various dilutions.
(§3) The peptides of the present invention were tested for their ability to bind directly with C72 murine anti-DNA antibodies and B3 human anti-DNA antibodies according to the method described hereinabove.

[2] = test system: C72 murine anti-DNA antibody; test: Competitive inhibition of C72 binding to 5200; parameters: species or system mouse; conditions: FIG. 2, incubation with inhibiting agent
Description: The binding of C72 to 5200 was tested before and after incubation with 5200, R38, R18, Heparin, DNA and DNase. […] The percent inhibition is the percent reduction of the O.D. after incubation with the inhibiting agent.

[3] = test system: anti-R38 antibodies in patients' plasma; test: Immunoabsorption of plasma on R38 column, anti-R38 ELISA; type: binding, human
Description: (§4) The R38 peptide was dissolved in the coupling buffer (0.2M NaHCO3, 0.5M NaCl, pH 8.3) in a concentration of 1 mg/ml in 5 ml coupling buffer. A 5 ml N-hydroxysuccinimide (NHS)-activated Sepharose™ High Performance Column (Pharmacia 17-0717-01) is used. The isopropanol in the column was washed out from the column with 30 ml of cold (4° C.) 1 mM HCl and 5 ml of the peptide solution was then injected onto the column with a syringe (2.5 ml/minute). The column was sealed and stood for 30 minutes at room temperature. The column was then washed with 30 ml Buffer A (0.5 M ethanolamine, 0.5 M NaCl, pH 8.3) and 30 ml Buffer B (0.5 M acetate, 0.5 M NaCl, pH 4) consecutively three times, and then with neutral pH buffer (0.05 M Na2HP04 and 0.1% NaN3).
(§5) The column was washed with 15 ml PBS (phosphate buffered saline), followed by 15 ml elution buffer (0.1 M glycine HCl) and then 50 ml PBS. The C72 antibody or the patients' plasma samples were filtered through a 0.45 microm filter. The samples were applied onto the column by a fitted syringe at a rate of 2.5 ml/min. The column was then washed with 5 ml PBS and the flow-through was applied to the column again. The binding of the samples (original and flow-through) to R38 was tested by the anti-R38 ELISA test.
(§6) In the instant example, the mouse C72 and the SLE patients' plasma were applied to the R38 column. Their anti-R38 binding was evaluated by ELISA in the original samples and in the flow-through of the column.

[4] = test system: MRL/lpr/lpr mice; test: Effect on clinical course of murine SLE (survival, renal histology); type: in vivo, mouse; conditions: from 6 weeks old
Description: To test whether R38 peptides can affect the course of SLE we have tested their effect on MRL/lpr/lpr mice disease. 60 μg of 5200 (R38′ alone or in peptide combinations, 30 μg of each) in 0.1 ml PBS, was injected i.p. to 6 week old female MLR/lpr/lpr mice once a week for 16 week and the mice were evaluated for survival (FIG. 8), and for renal histology. 50 μg of 5100 (R38) or 5300 (human R38) in 0.1 ml PBS, was injected i.p. to 6 week old MRL/lpr/lpr mice three times a week and the mice were evaluated for survival (FIG. 9), and for renal histology. Control mice received 0.1 ml phosphate buffer solution. Each test and control group contained 12-15 mice.
The survival of MRL/lpr/lpr mice treated with […], 5200 or 5300 was compared to that of PBS treated mice. […] In FIGS. 8 and 9 the time in days shown on the x axis relates to the age of the mice.

[5] = test system: C72 antibody; test: Immunoabsorption of C72 on R38 column, anti-R38 ELISA; type: binding, mouse
Description: as §4, §5, §6

[6] = test system: B3 human anti-DNA antibody; test: Direct binding ELISA of B3 to laminin peptides; conditions: FIGS. 3 and 4
Description: as §1, §2
(§7) The human monoclonal anti-DNA antibodies DIL 6 and B3 were derived from lupus patients by the hybridoma technique. […] In FIGS. 3 and 4, the peptides are referred to as denoted above or as follows; AS30 is R27, AS19 is R35 AS35 is R26, AS17 is R28 and AS6 is R18.
as §3

[7] = test system: human monoclonal anti-DNA antibody DIL 6; test: Direct binding ELISA of DIL6 to laminin peptides; conditions: FIGS. 3 and 4
Description: as §1, §2, §7

[8] = test system: murine urinary immunoglobulins; test: Binding of murine urinary immunoglobulins, direct binding ELISA; parameters: species or system mouse; conditions: MRL/lpr/lpr mice, pooled urine
Description: as §2
Thus, pooled urine from at least 5 mice (either MRL/lpr/lpr or control mice, e.g. BALB/c) was added to wells coated with R38′ (5200), R18 or DNA as described above and bound 5200 assayed by ELISA.
Each group is comprised of pooled urine.

[9] = molecular target: C72 murine anti-DNA antibody; test: competitive inhibition ELISA: C72 preincubated with peptide, binding to coated 5100 (R38)

- C72 Binding [1]: 0.08 O.D.
Molecule: CC[C@H](C)[C@H](NC(=O)[C@H](CC(N)=O)NC(=O)[C@H](CC(C)C)NC(=O)[C@H](CC(=O)O)NC(=O)[C@H](CC(C)C)NC(=O)[C@H](C)NC(=O)[C@@H](NC(=O)[C@H](C)NC(=O)[C@H](Cc1ccc(O)cc1)NC(=O)CNC(=O)[C@H](CCC(=O)O)NC(=O)[C@H](C)N)C(C)C)C(=O)N[C@H](C(=O)N[C@@H](CC(C)C)C(=O)N[C@@H](CCC(=O)O)C(=O)N[C@@H](Cc1ccccc1)C(=O)N[C@@H](C)C(=O)N[C@H](C(=O)N[C@H](C(=O)N[C@@H](CO)C(=O)N[C@@H](C)C(=O)O)[C@@H](C)O)[C@@H](C)O)[C@@H](C)O [Peptide 5104] (H-AEGYAVALDLNITLEFATTSA-OH; N-terminus and C-terminus assumed)

Molecule: CC[C@H](C)[C@H](NC(=O)[C@H](CC(N)=O)NC(=O)[C@H](CC(C)C)NC(=O)[C@H](CC(=O)O)NC(=O)[C@H](CC(C)C)NC(=O)[C@H](CCCNC(=N)N)NC(=O)[C@@H](NC(=O)[C@H](CCCCN)NC(=O)[C@H](Cc1ccc(O)cc1)NC(=O)CNC(=O)[C@H](CCC(=O)O)NC(=O)[C@@H](N)CCCCN)C(C)C)C(=O)N[C@H](C(=O)N[C@@H](CC(C)C)C(=O)N[C@@H](CCC(=O)O)C(=O)N[C@@H](Cc1ccccc1)C(=O)N[C@@H](CCCNC(=N)N)C(=O)N[C@H](C(=O)N[C@H](C(=O)N[C@@H](CO)C(=O)N[C@@H](CCCCN)C(=O)O)[C@@H](C)O)[C@@H](C)O)[C@@H](C)O [Peptide 5100] (H-KEGYKVRLDLNITLEFRTTSK-OH; N-terminus and C-terminus assumed)
- inhibition of the binding of C72 to 5200 [2]: inhibition
- Binding to R38 (O.D.) ([3]; Healthy donor's plasma, after immunoabsorption): 0.06 O.D.
- Binding to R38 (O.D.) ([3]; Healthy donor's plasma, original sample): 0.26 O.D.
- Binding to R38 (O.D.) ([3]; SLE patient 1 plasma, after immunoabsorption): 0.6 O.D.
- Binding to R38 (O.D.) ([3]; SLE patient 1 plasma, original sample): 1.5 O.D.
- Binding to R38 (O.D.) ([3]; SLE patient 2 plasma, after immunoabsorption): 1.6 O.D.
- Binding to R38 (O.D.) ([3]; SLE patient 2 plasma, original sample): 2.3 O.D.
- antibodies removed by affinity absorption on the column ([3]; human SLE patients' plasma): 30%-60%
- survival ([4]; 50 μg i.p. three times a week, FIG. 9): significantly higher than that of control mice
- Binding to R38 (O.D.) ([5]; C72, after immunoabsorption on R38 column): 0.02 O.D.
- Binding to R38 (O.D.) ([5]; C72, original sample): 1.96 O.D.
- anti-R38 activity removed by affinity absorption on the column ([5]; mouse monoclonal C72): 99%

Molecule: DNase [reference compound]
- inhibition of the binding of C72 to 5200 [2]: not by a control peptide or treatment with DNase

- C72 Binding [1]: 2.5 O.D.
Molecule: CC[C@H](C)[C@H](NC(=O)[C@H](CC(N)=O)NC(=O)[C@H](CC(C)C)NC(=O)[C@H](CC(=O)O)NC(=O)[C@H](CC(C)C)NC(=O)[C@H](CCCNC(=N)N)NC(=O)[C@@H](NC(=O)[C@H](CCCCN)NC(=O)[C@H](Cc1ccc(O)cc1)NC(=O)CNC(=O)[C@H](CCC(=O)O)NC(=O)[C@@H](N)CCCCN)C(C)C)C(=O)N[C@H](C(=O)N[C@@H](CC(C)C)C(=O)N[C@@H](C)C(=O)N[C@@H](Cc1ccccc1)C(=O)N[C@@H](CCCNC(=N)N)C(=O)N[C@H](C(=O)N[C@H](C(=O)N[C@@H](CO)C(=O)N[C@@H](CCCCN)C(=O)O)[C@@H](C)O)[C@@H](C)O)[C@@H](C)O [Peptide 5110] (H-KEGYKVRLDLNITLAFRTTSK-OH; N-terminus and C-terminus assumed)

Molecule: CC(C)C[C@H](NC(=O)[C@H](CC(=O)O)NC(=O)[C@H](CC(C)C)NC(=O)[C@H](CCCNC(=N)N)NC(=O)[C@@H](NC(=O)[C@H](CCCCN)NC(=O)[C@H](Cc1ccc(O)cc1)NC(=O)CNC(=O)[C@H](CCC(=O)O)NC(=O)[C@@H](N)CCCCN)C(C)C)C(=O)N[C@@H](CC(N)=O)C(=O)N[C@H](C(=O)N[C@H](C(=O)N[C@@H](CC(C)C)C(=O)N[C@@H](CCC(=O)O)C(=O)N[C@@H](Cc1ccccc1)C(=O)N[C@@H](CCCNC(=N)N)C(=O)N[C@H](C(=O)N[C@H](C(=O)N[C@@H](CO)C(=O)N[C@@H](CCCCN)C(=O)O)[C@@H](C)O)[C@@H](C)O)[C@@H](C)O)[C@@H](C)O (stereo in doubt) [Peptide 5200]
- binding of C72 murine anti-DNA antibody to laminin peptides [1]: binding
- inhibition of the binding of C72 to 5200 [2]: inhibition
- binding of B3 [6]: found to bind
- binding of DIL 6 [7]: found to bind
- survival ([4]; 60 μg i.p. once a week for 16 week, FIG. 8): significantly higher than that of control mice
- Binding of murine urinary immunoglobulins to antigen [8]: 0.26 (*) O.D. at 405 nm

- inhibition of the binding of C72 to 5200 [2]: inhibition
Molecule: heparin [reference compound]

- binding of C72 murine anti-DNA antibody to laminin peptides [1]: binding
Molecule: KATPMLKMRTSFHGCIK [Peptide R37, residues 2615-2631 of mouse laminin α chain]

- binding of C72 murine anti-DNA antibody to laminin peptides [1]: binding
Molecule: KQNCLSSRASFRGCVRNLRLSR [Peptide R30, residues 3011-3032 of mouse laminin α chain]

- inhibition of the binding of C72 to 5200 [2]: inhibition
Molecule: DNA [reference compound]

- IC50 [9]: 5 µg/mL
Molecule: KEGYKVRLDLNITLEF [5101 peptide, Res. 1-16 of 5100]

- IC50 [9]: 10 µg/mL
Molecule: KEGYKVRLDLNTTLEFRTTSK [5200 peptide, mouse R38 analog]

- IC50 [9]: 2.5 µg/mL
Molecule: KEGYKVELDLNITLEFRTTSK [5106 peptide, charge subst. to neg. at 5100 a.a. 7]

- IC50 [9]: 85 µg/mL
Molecule: KEGYKVRLDLNITLEFETTSK [5107 peptide, charge subst. to neg. at 5100 a.a. 17]

- IC50 [9]: 0.7 µg/mL
Molecule: KEGYKVRLALNITLEFRTTSK [5109 peptide, Ala subst. of 5100 a.a. 9]

- IC50 [9]: 2 µg/mL
Molecule: KAGYKVRLALNITLAFRTTSK [5108 peptide, Ala subst. of 5100 at all negative a.a.]

- IC50 [9]: 0.7 µg/mL
Molecule: KEGYKVRLDLNITLAFRTTSK [5110 peptide, Ala subst. of 5100 a.a. 15]

- IC50 [9]: 30 µg/mL
Molecule: VRLDLNITLEFR [5102 peptide, Res. 6-17 of 5100]

- IC50 [9]: 10 µg/mL
Molecule: KEGYKVRLDLNITLEFRTTSK [R38 peptide (5100), mouse laminin alpha chain residues 2890-2910]
